For 2 compounds, IC50 results are on record in BindingDB's records for patent US20240059711 (University of Michigan, 2024).

The structures appear in SMILES notation.

The target of the test is Protein cereblon (Homo sapiens, UniProt Q96SW2). Kind of test: Cereblon Binding Assay. The method, then:
The binding to cereblon (CRBN) was determined using the Cereblon Binding Kit (Cisbio, #64BDCRBNPEG) following the manufacturer's instruction. Briefly, serially diluted compounds were incubated with GST-tagged wild-type human CRBN protein, XL665-labelled Thalidomide and Europium Cryptate labelled GST antibody at room temperature for about 3 hours. Time Resolved Fluorescence Resonance Energy Transfer (TR-FRET) measurements were acquired on a CALRIOstar plate reader with MARS data analysis software (BMG Labtech), with the following settings: 665/10 nm and 620/10 nm emission, 60 μs delay and 400 μs integration. The TR-FRET ratio was taken as the 665/620 nm intensity ratio.

Protein cereblon, sequence (Q96SW2 whole entry): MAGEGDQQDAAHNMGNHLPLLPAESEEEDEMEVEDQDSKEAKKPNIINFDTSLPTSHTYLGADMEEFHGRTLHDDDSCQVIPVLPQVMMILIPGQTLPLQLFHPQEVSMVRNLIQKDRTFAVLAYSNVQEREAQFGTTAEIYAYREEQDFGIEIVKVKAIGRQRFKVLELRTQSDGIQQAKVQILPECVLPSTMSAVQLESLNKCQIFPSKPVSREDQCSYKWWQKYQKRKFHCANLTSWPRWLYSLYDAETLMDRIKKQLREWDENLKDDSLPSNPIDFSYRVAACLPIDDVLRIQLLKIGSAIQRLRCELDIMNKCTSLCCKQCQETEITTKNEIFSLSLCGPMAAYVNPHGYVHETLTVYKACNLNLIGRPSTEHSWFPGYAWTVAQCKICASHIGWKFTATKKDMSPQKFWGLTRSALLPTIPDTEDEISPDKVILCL

In the case of `O=C1CCC(N2Cc3c(ccc4c3O[C@H](COCc3ccccc3)CO4)C2=O)C(=O)N1` (some centres not stated) [US20240059711, Compound B10], the half-maximal inhibitory concentration (IC50) (commonly the concentration that inhibits the measured activity by half) was determined as 800 nM.

Take `O=C1CCC(N2Cc3c(ccc4c3O[C@@H](COCc3ccccc3)CO4)C2=O)C(=O)N1` (some centres not stated) [US20240059711, Compound B9]: the IC50 was determined as 580 nM.
